Values after ≈ are worked out from the molar mass of the structure shown.
How the values were obtained:
[1] = Stability in mouse liver microsomes assessed as parent compound remaining after 10 mins; assay type: ADME, Microsome; details: read-out: Stabilty
[2] = Stability in rat liver microsomes assessed as parent compound remaining after 10 mins; assay type: ADME, Microsome; details: read-out: Stabilty
[3] = Stability in human liver microsomes assessed as parent compound remaining after 10 mins; assay type: ADME, Microsome; details: read-out: Stabilty
[4] = AUC (0 to 24 hrs) in mouse at 10 mg/kg, po; assay type: ADME, organism-based; set-up: time < 24 hr, route oral, dose 10 mg/kg; details: in vivo
[5] = Clearance in mouse at 10 mg/kg, po; assay type: ADME, organism-based; details: in vivo
[6] = Oral bioavailability in mouse at 10 mg/kg; assay type: ADME, organism-based; details: in vivo
[7] = Aqueous solubility of compound at pH 6.5; assay type: physicochemical; details: aqueous solution
[8] = Volume of distribution at steady state in mouse at 10 mg/kg, po; assay type: ADME, organism-based; details: in vivo
[9] = Cmax in mouse at 10 mg/kg, po; assay type: ADME, organism-based; set-up: route oral, dose 10 mg/kg; details: in vivo
[10] = Oral bioavailability in cynomolgus monkey at 7 mg/kg; assay type: ADME, organism-based, Macaca fascicularis; details: in vivo
[11] = Half life in rat liver microsomes; assay type: ADME, Microsome
[12] = Cmax in cynomolgus monkey at 7 mg/kg, po; assay type: ADME, organism-based, Macaca fascicularis; set-up: route oral, dose 7 mg/kg; details: in vivo
[13] = Half life in monkey liver microsomes; assay type: ADME, Macaca mulatta, Microsome; details: rhesus monkey
[14] = Half life in dog liver microsomes; assay type: ADME, Canis lupus familiaris, Microsome
[15] = Volume of distribution at steady state in cynomolgus monkey at 7 mg/kg, po; assay type: ADME, organism-based, Macaca fascicularis; details: in vivo
[16] = AUC (0 to 24 hrs) in rat at 10 mg/kg, po; assay type: ADME, organism-based; set-up: time < 24 hr, route oral, dose 10 mg/kg; details: in vivo
[17] = Cmax in rat at 10 mg/kg, po; assay type: ADME, organism-based; set-up: route oral, dose 10 mg/kg; details: in vivo
[18] = Volume of distribution at steady state in dog at 10 mg/kg, po; assay type: ADME, organism-based, Canis lupus familiaris; details: in vivo
[19] = Oral bioavailability in dog at 10 mg/kg; assay type: ADME, organism-based, Canis lupus familiaris; details: in vivo
[20] = Half life in mouse liver microsomes; assay type: ADME, Microsome
[21] = Volume of distribution at steady state in rat at 10 mg/kg, po; assay type: ADME, organism-based; details: in vivo
[22] = Half life in human liver microsomes; assay type: ADME, Microsome
[23] = Clearance in rat at 10 mg/kg, po; assay type: ADME, organism-based; details: in vivo
[24] = AUC (0 to 24 hrs) in dog at 10 mg/kg, po; assay type: ADME, organism-based, Canis lupus familiaris; set-up: time < 24 hr, route oral, dose 10 mg/kg; details: in vivo
[25] = Cmax in dog at 10 mg/kg, po; assay type: ADME, organism-based, Canis lupus familiaris; set-up: route oral, dose 10 mg/kg; details: in vivo
[26] = Clearance in cynomolgus monkey at 7 mg/kg, po; assay type: ADME, organism-based, Macaca fascicularis; details: in vivo
[27] = Oral bioavailability in rat at 10 mg/kg; assay type: ADME, organism-based; details: in vivo
[28] = Clearance in dog at 10 mg/kg, po; assay type: ADME, organism-based, Canis lupus familiaris; details: in vivo
[29] = AUC (0 to 24 hrs) in cynomolgus monkey at 7 mg/kg, po; assay type: ADME, organism-based, Macaca fascicularis; set-up: time < 24 hr, route oral, dose 7 mg/kg; details: in vivo

| remaining at 10 min [1] | remaining at 10 min [2] | remaining at 10 min [3] | AUC(0-t) at 24 h [4] | CL/F [5] | bioavailability [6] | Vdss [8] | Cmax [9] | SMILES | other results |
| --- | --- | --- | --- | --- | --- | --- | --- | --- | --- |
| 42% | 34% | 79% |  |  |  |  |  | [2H]C([2H])([2H])NC(=O)c1nnc(NC(=O)C2CC2)cc1Nc1cccc(-c2ccccn2)c1OC |  |
| 1% | 1% | 58% |  |  |  |  |  | [2H]C([2H])([2H])NC(=O)c1nnc(NC(=O)C2CC2)cc1Nc1cccc(-c2cnccn2)c1OC |  |
| 3% | 3% | 48% |  |  |  |  |  | [2H]C([2H])([2H])NC(=O)c1nnc(NC(=O)C2CC2)cc1Nc1cccc(-c2ccncn2)c1OC |  |
| 0% | 8% | 60% |  |  |  |  |  | [2H]C([2H])([2H])NC(=O)c1nnc(NC(=O)C2CC2)cc1Nc1cccc(-c2cccnn2)c1OC |  |

More lines, now with the values behind:

| SMILES | remaining at 10 min [1] | remaining at 10 min [2] | remaining at 10 min [3] | AUC(0-t) at 24 h [4] | CL/F [5] | bioavailability [6] | Vdss [8] | Cmax [9] | other results |
| --- | --- | --- | --- | --- | --- | --- | --- | --- | --- |
| [2H]C([2H])([2H])NC(=O)c1nnc(NC(=O)C2CC2)cc1Nc1cccc(-c2ncccn2)c1OC | 78% | 77% | 100% | 15 µM·h | 7.9 mL/min/kg | 31% | 2.3 L/kg | 5.4 µM | solubility [7]: < 1 µg/mL |
| [2H]C([2H])([2H])NC(=O)c1cnc(NC(=O)C2CC2)cc1Nc1cccc(-c2ncc(F)cn2)c1OC [BMS-986202] |  |  |  | 65 µM·h | 3 mL/min/kg | 62% | 1.1 L/kg | 13 µM | bioavailability [10]: 100%; half-life [11]: > 2 h; Cmax [12]: 11 µM; half-life [13]: > 2 h; half-life [14]: 1.48 h; Vdss [15]: 7 L/kg; AUC(0-t) at 24 h [16]: 77 µM·h; Cmax [17]: 13 µM; Vdss [18]: 1.5 L/kg; bioavailability [19]: 100%; half-life [20]: > 2 h; Vdss [21]: 1.1 L/kg; half-life [22]: > 2 h; CL/F [23]: 3.6 mL/min/kg; AUC(0-t) at 24 h [24]: 126 µM·h; Cmax [25]: 14 µM; CL/F [26]: 2.3 mL/min/kg; bioavailability [27]: 72%; CL/F [28]: 1.8 mL/min/kg; AUC(0-t) at 24 h [29]: 130 µM·h |
| [2H]C([2H])([2H])NC(=O)c1nnc(NC(=O)C2CC2)cc1Nc1cccc(-c2cnc(C(=O)N(C)C)cn2)c1OC |  |  |  | 19 µM·h | 7.6 mL/min/kg | 43% | 1.5 L/kg | 7.8 µM |  |
| [2H]C([2H])([2H])NC(=O)c1nnc(NC(=O)C2CC2)cc1Nc1cccc(-c2cnc(C(C)(C)O)cn2)c1OC | 99% | 90% | 95% | 26 µM·h | 5.3 mL/min/kg | 41% | 3.4 L/kg | 6.1 µM |  |
| [2H]C([2H])([2H])NC(=O)c1cnc(NC(=O)C2CC2)cc1Nc1cccc(-c2ncccn2)c1OC |  |  |  |  |  |  |  |  | solubility [7]: 32 µg/mL (≈ 75.9 µM) |
| [2H]C([2H])([2H])NC(=O)c1nnc(NC(=O)C2CC2)cc1Nc1cccc(-c2ncc(C(C)(C)O)cn2)c1OC |  |  |  |  |  |  |  |  | solubility [7]: 14 µg/mL (≈ 29.1 µM) |
| [2H]C([2H])([2H])NC(=O)c1nnc(NC(=O)C2CC2)cc1Nc1cccc(-c2ncn(C)n2)c1OC [DEUCRAVACITINIB] | 89% | 100% | 98% |  |  |  |  |  |  |
